Reference: patent US20250249001A1, “METHODS OF TREATING SUBSTANCE USE DISORDER WITH 4-(3-CYANOPHENYL)-6-PYRIDINYLPYRIMIDINE MGLU5 NEGATIVE ALLOSTERIC MODULATORS” (Tempero Bio, Inc., priority 2022, published 2025)
Read-outs that look alike come from different tables or passages of the source.

Legend:
[1] = test system: cocaine reinstatement in rats; assay: Yohimbine-induced reinstatement of cocaine self-administration (Stage II); assay type: in vivo, Sprague-Dawley rats; conditions: for cocaine reinstatement, Mean Diff., Last Day of Cocaine Retraining vs treatment - Yohimbine / cocaine reinstatement, Mean Diff., Last Day of Extinction vs. treatment - Yohimbine / cocaine reinstatement, Mean Diff., Saline - Yohimbine 2 mg/kg vs. treatment - Yohimbine: 3 mg/kg, thirty min before yohimbine 2 mg/kg
Description: After completion of Stage I, the rats were re-trained with cocaine for one week to ensure stable baseline. And then the rats underwent a 6-day extinction training procedure in which only saline infusion occurred when active lever was pressed. Meanwhile, the rats were divided into 3 roughly even groups for pharmacological stressor-induced reinstatement—All rats received one injection of alpha-2 adrenergic antagonist yohimbine (2 mg/kg) and then placed into the training box immediately). Thirty min before yohimbine treatment, one group of rats received saline, another group received MTEP 3 mg/kg injection, and the 3rd group received Compound 1 at 3 mg/kg.
Yohimbine-induced reinstatement was re-tested two more times in the same rats 3 days and 6 days after the first test, under continuous extinction procedure (There were 2 more days of extinction training between the 1st and 2nd reinstatement test, and between the 2nd and 3rd reinstatement test). Using the 3×3 within subject design, each given animal goes through all three treatments (saline, MTEP and Compound 1) across the three rounds of test.
(§1) A one-way mixed-effects model (REML) of ANOVA followed by Dunnett's post hoc tests were used to analyze efficacy of Compound 1 and MTEP on cocaine self-administration in stages I (The repeated measure ANOVA was not totally applicable due to a few outlier data points, which are removed), and one-way mixed-effects model (REML) of ANOVA followed by Tukey's post hoc tests were used in Stage II. An effect was considered significant if P<0.05. Data were represented as the mean and standard error to the mean (s.e.m).
Statistical outliers which exceeded mean +/− (2× standard deviation) of the group were removed from the analysis. Also, for reinstatement, the extinction time was shortened (from 9 days plus extension as option to 6 days). In the present study, 3 rounds of reinstatement tests were performed, and we wished to maintain the reinstatement power, thus we cut extinction duration. Accordingly, we loosened the extinction criterion from 6 or less infusions to 9 or less infusions during the last extinction session. With this criterion, 17 out of 21 rats were eligible in drug test in Stage II.

[2] = test system: cocaine self-administration in rats
[3] = test system: oxycodone reinstatement in rats; assay: Yohimbine-induced reinstatement of oxycodone self-administration; assay type: in vivo, Sprague-Dawley rats; conditions: 3 mg/kg thirty minutes before yohimbine 2 mg/kg; Ps<0.001
Description: Evaluation of Compound 1 on Oxycodone Reinstatement. After completion of testing rats were re-trained with oxycodone for one week to ensure stable baseline. Rats then underwent a 6-day extinction where only saline infusion occurred when active lever was pressed. Meanwhile, the rats were divided into 3 groups: All rats received one injection of alpha-2 adrenergic antagonist yohimbine (2 mg/kg) with 0 min pretreatment (rats were placed into the training box immediately). Thirty minutes before yohimbine treatment, one group of rats received saline, another group received MTEP 3 mg/kg injection, and the 3rd group received Compound 1 (3 mg/kg). Yohimbine-induced reinstatement was re-tested two more times in the same rats 3 days and 6 days after the first test, under continuous extinction procedure.
as §1, with “Statistical Analysis. Prism 9.40 software package Version 9 was used for statistical analysis and graphing. The number of active lever responses were recorded during each session and compared between treatment groups. A one-way” for “A one-way”, “MTEP on oxycodone self-administration in” for “MTEP on cocaine self-administration in”, “mean (s.e.m). Statistical outliers which exceeded mean +/− (2× standard deviation) of the group were removed from the analysis.” for “mean (s.e.m).”

[4] = test system: cocaine reinstatement in rats; assay: Yohimbine-induced reinstatement of cocaine self-administration (Stage II); assay type: in vivo, Sprague-Dawley rats; conditions: 3 mg/kg co-administered with yohimbine 2 mg/kg; Ps<0.001
[5] = 3 mg/kg IP, FR5, 1 hour session

**Q.** Which results are given for `N#Cc1cc(Cl)cc(-c2cc(-c3ccc(F)cn3)ncn2)c1` [Compound 1, 3-chloro-5-[6-(5-fluoropyridin-2-yl)pyrimidin-4-yl]benzonitrile]?
**A.** cocaine reinstatement, Mean Diff., Last Day of Cocaine Retraining vs treatment - Yohimbine [1]: 26.57; cocaine reinstatement, Mean Diff., Last Day of Extinction vs. treatment - Yohimbine [1]: 5.749; cocaine reinstatement, Mean Diff., Saline - Yohimbine 2 mg/kg vs. treatment - Yohimbine [1]: 20.28; cocaine reinstatement, Mean Diff., MTEP 3 mg/kg - Yohimbine vs. Compound 1 (3 mg/kg) - Yohimbine ([1]; both 3 mg/kg before yohimbine 2 mg/kg): −0.1333; cocaine self-administration, Mean Diff., Saline vs. treatment ([2]; 1 mg/kg IP 30 min before testing, FR5): 15.73; cocaine self-administration, Mean Diff., Saline vs. treatment [2, 5]: 24.3; cocaine self-administration, Mean Diff., Saline vs. treatment ([2]; 10 mg/kg IP 30 min before testing, FR5): 27.07; cocaine self-administration vs saline treatment ([2]; all three doses, 1, 3 and 10 mg/kg IP): significantly attenuate cocaine self-administration; yohimbine-induced oxycodone reinstatement vs Vehicle-Yohimbine group [3]: attenuated yohimbine-induced oxycodone reinstatement; yohimbine-induced cocaine reinstatement [4]: almost entirely prevented cocaine reinstatement

**Q.** What does the source list for `Cc1nc(C#Cc2cccnc2)cs1` [MTEP, 3-((2-Methyl-4-thiazolyl)ethynyl)pyridine]?
**A.** cocaine reinstatement, Mean Diff., Last Day of Cocaine Retraining vs treatment - Yohimbine [1]: 26.71; cocaine reinstatement, Mean Diff., Last Day of Extinction vs. treatment - Yohimbine [1]: 5.882; cocaine reinstatement, Mean Diff., Saline - Yohimbine 2 mg/kg vs. treatment - Yohimbine [1]: 20.41; cocaine infusion vs saline treatment ([2]; 3 mg/kg IP): significantly decreased cocaine infusion; cocaine self-administration, Mean Diff., Saline vs. treatment [2, 5]: 19.93; yohimbine-induced oxycodone reinstatement vs Vehicle-Yohimbine group [3]: attenuated yohimbine-induced oxycodone reinstatement; yohimbine-induced cocaine reinstatement [4]: almost entirely prevented cocaine reinstatement
